Experimental data as given in patent US4728509A, “Aqueous liquid preparation” (Takeda Chemical Industries, Ltd., priority 1985, dated 1988).

experiment: Solubility test of compound (a) with and without solubilizers (Experimental Example 1; HPLC of filtrate); conditions: not given
Description: Solubility tests of the compound (a) (2-amino-7-isopropyl-5-oxo-5H-[1]-benzopyrano[2,3-b]pyridine-3-carboxylic acid) employing the solubilizers of this invention and, for comparison, employing various conventional solubilizers were performed.
The solubility was measured by the following manner:
An excess amount of the compound (a) was added to a given volume of a phosphate buffer, the mixture was sufficiently stirred, then the pH was adjusted to a given level, the mixture was allowed to stand at room temperature (25° C.) for 48 hours, the resultant was subjected to filtration with 0.45μ membrane filter, followed by measuring the concentration of the compound (a) in the filtrate by means of high performance liquid chromatography.

| effect for improving the solubility of compound (a) | Compound |
| --- | --- |
| some improvement | NNC(=O)c1ccncc1 [isoniazid, reference compound] |
| excellent effect | OC[C@H]1O[C@@H]2O[C@H]3[C@H](O)[C@@H](O)[C@@H](O[C@H]4[C@H](O)[C@@H](O)[C@@H](O[C@H]5[C@H](O)[C@@H](O)[C@@H](O[C@H]6[C@H](O)[C@@H](O)[C@@H](O[C@H]7[C@H](O)[C@@H](O)[C@@H](O[C@H]8[C@H](O)[C@@H](O)[C@@H](O[C@H]1[C@H](O)[C@H]2O)O[C@@H]8CO)O[C@@H]7CO)O[C@@H]6CO)O[C@@H]5CO)O[C@@H]4CO)O[C@@H]3CO [β-cyclodextrin] |
| less effective | Polyoxyethylene sorbitan monooleate [Tween 80, reference compound] |
| excellent effect | polyvinylpyrrolidone |

same assay, conditions: in words; substance used as solubilizer

| Compound | effect for improving the solubility of compound (a) |
| --- | --- |
| O=C([O-])c1ccccc1O.[Na+] [sodium salicylate, reference compound] | less effective |
| NC(N)=O [urea, reference compound] | less effective |
